Reference: patent US6693123B2 (University of Pittsburgh, priority 1995, dated 2004)
Counter-ions that a name gives are not always drawn. Like-named read-outs stand apart in the source and are kept apart here.

Experiments:
[1] = tested on: geranylgeranyltransferase I; assay: Inhibition of geranylgeranyltransferase I (glass fiber filter binding assay, H-Ras-CVLL, 3H-GGPP); type: biochemical, bovine; settings: for Activity: % inhibition at 1 × 10^−6 M: compound at 1 × 10^−6 M (Table 5); for Activity: % inhibition at 1 × 10^−7 M: compound at 1 × 10^−7 M (Table 5)
Description: The ability of the compounds of the invention to inhibit protein farnesyltransferase or protein geranylgeranyltransferase can be measured according to the method of Moores, et al., J. Biol. Chem. 266: 14603 (1991) or the method of Vogt, et al., J. Biol. Chem. 270:660-664 (1995). In addition, procedures for determination of the inhibition of farnesylation of the oncogene protein Ras are described by Goldstein, et al., J. Biol. Chem., 266:15575-15578 (1991) and by Singh in U.S. Pat. No. 5,245,061.
Additional methods for the measurement of in vitro inhibition of protein prenylation (i.e., inhibition of farnesyltransferase or geranylgeranyltransferase) are described below.
Assays are performed using the glass fiber filter binding assay procedure with either rabbit reticulocyte lysate or Frase or GGTase I fractions isolated from bovine brains using a combination of hydrophobic and DEAE column chromatography procedures. Protein substrates are purchased from Panvera Corporation (H-ras for FTase, H-ras-CVLL for GGTase I). Tritium labeled prenyl lipid substrates (FPP or GGPP) are obtained from Amersham Life Science.
^3H-geranylgeranyldiphosphate (final concentration 0.5 μM), H-Ras-CVLL (final concentration 5.0 μM) and the test compound (various final concentrations from a stock solution in 1:1 DMSO/water; final concentration DMSO <2%) were mixed in buffer (50 mM Tris-HCl (pH 7.2), 30 mM MgCl2, 20 mM KCl, 10 μM ZnCl2, 5 mM DTT, 0.01% Triton X-100) to give a final volume of 50 μL. The mixture was brought to 37° C., treated with enzyme, and incubated for 30 minutes. 1 mL of 1 M HCl/ethanol was added to stop the reaction, and the mixture was allowed to stand for 15 minutes at room temperature then diluted with 2 mL of ethanol. The reaction mixture was filtered through a 2.5 cm glass microfiber filter from Whatman and washed with four 2 mL portions of ethanol. The glass filter was transferred to a scintillation vial, and 5 mL scintillation fluid was added. The radioisotope retained on the glass fiber filter was counted to reflect the activity of the enzymes. The IC50 value was calculated by measuring the activity of the enzyme over a suitable range of inhibitor concentrations.

[2] = molecular target: T1, Rat brain protein farnesyltransferase (Rattus norvegicus, UniProt Q02293+Q04631); assay: In vitro inhibition of protein farnesyltransferase, Amersham scintillation proximity assay with biotin-K Ras B fragment; type: biochemical; settings: for inhibition at 1 µM / % inhibition at 1 × 10^−6 M: compound at 1 × 10^−6 M (Table 2); for inhibition at 1 µM: read-out: % inhibition at 1 × 10^−6 M
T1 construct: The enzyme is purified according to Reiss, Y., et al., Cell, 62: 81-88 (1990), utilizing steps one through three; from tissue; host or cells: rat brain

[3] = Inhibition of farnesyltransferase
[4] = Inhibition of farnesyltransferase, compound at 1 × 10^−8 M (Table 4), read-out: % inhibition at 1 × 10^−8 M
[5] = read-out: % inhibition at 0.01 μM
[6] = Inhibition of farnesyltransferase, compound at 0.01 μM (Table 6, values marked **), read-out: % inhibition at 0.01 μM

## Cc1cc(C)cc(-c2cc(NCc3cnc[nH]3)ccc2C(=O)N[C@@H](CC(C)C)C(=O)O)c1 [Example 399]
[1]
  Activity: % inhibition at 1 × 10^−6 M: >50% inhibition at 1 × 10^−6 M
[2]; [3]
  inhibition at 1 µM: > 50%

## CSCC[C@H](NC(=O)c1cc(CC2CCCCC2)c(COc2cccnc2)cc1-c1ccccc1C)C(=O)O [Example 921, N-[5-Cyclohexylmethyl-4-(pyrid-3-yloxymethyl)-2-(2-methylphenyl)benzoyl]methionine]
[2]; Inhibition of farnesyltransferase, compound at 1 × 10^−7 M (Table 3), read-out: % inhibition at 1 × 10^−7 M
  inhibition at 0.1 µM: 82%

## CSCC[C@H](NC(=O)c1cc(CCc2ccccc2)c(COc2cccnc2)cc1-c1ccccc1C)C(=O)O [Example 922, N-[5-(2-Phenylethyl)-4-(pyrid-3-yloxymethyl)-2-(2-methylphenyl)benzoyl]methionine]
[2]; [4]
  inhibition at 0.01 µM: 96%

## CSCCCNC(=O)c1ccc(CN(Cc2ccccc2)c2cccnc2)cc1-c1ccccc1C [Example 926, 3-Methylthiopropyl N-4-(N-Pyrid-3-yl-N-benzylaminomethyl)-2-(2-methylphenyl)benzamide]
[2]; [3]
  inhibition at 1 µM: 69%

## CSCC[C@H](NC(=O)c1ccc(CNCc2c[nH]cn2)cc1-c1ccccc1C)C(=O)O [Example 954, N-[4-(Imidazol-4-ylmethylaminomethyl)-2-(2-methylphenyl)benzoyl]methionine]
[2]; [4]
  inhibition at 0.01 µM: > 50%

## CC(C)C[C@H](NC(=O)c1ccc(CNCc2c[nH]cn2)cc1-c1cccc2ccccc12)C(=O)O [Example 955, N-[4-(Imidazol-4-ylmethylaminomethyl)-2-naphth-1-ylbenzoyl]leucine]
[1]
  Activity: % inhibition at 1 × 10^−7 M: >50% inhibition at 1 × 10^−7 M
[2]; Inhibition of farnesyltransferase, compound at 1 × 10^−5 M (Table 1)
  inhibition at 10 µM: 50%

## CSCC[C@H](NC(=O)c1ccc(OCCn2ccnc2)cc1-c1ccccc1)C(=O)O [Example 958, N-[4-(2-Imidazol-1-ylethoxy)-2-phenylbenzoyl]methionine]
[2]; [4]
  inhibition at 0.01 µM: > 50%

## Cc1ccccc1-c1cc(NCc2c[nH]cn2)ccc1C(=O)N[C@@H](CC(C)C)C(=O)O [Example 962, N-[4-(Imidazol-4-ylmethylamino)-2-(2-methylphenyl)benzoyl]leucine Hydrochloride]
[1]
  Activity: % inhibition at 1 × 10^−7 M: >50% inhibition at 1 × 10^−7 M
[2]; [3]
  inhibition at 1 µM: > 50%

## CC(C)C[C@H](NC(=O)c1ccc(NCc2ncc[nH]2)cc1-c1cccc2ccccc12)C(=O)O [Example 966, N-[4-(Imidazol-2-ylmethylamino)-2-naphth-1-ylbenzoyl]leucine]
[1]
  Activity: % inhibition at 1 × 10^−6 M: >50% inhibition at 1 × 10^−6 M

## CC(C)C[C@H](NC(=O)c1ccc(NCc2c[nH]cn2)cc1-c1ccccc1)C(=O)O [Example 967, N-[4-(Imidazol-4-ylmethylamino)-2-phenylbenzoyl]leucine]
[1]
  Activity: % inhibition at 1 × 10^−6 M: >50% inhibition at 1 × 10^−6 M

## CC(C)C[C@H](NC(=O)c1ccc(NCc2ccncc2)cc1-c1cccc2ccccc12)C(=O)O [Example 969, N-[4-(Pyrid-4-ylmethylamino)-2-naphth-1-ylbenzoyl]leucine]
[1]; compound at 1 × 10^−5 M (Table 5)
  Activity: % inhibition at 1 × 10^−5 M: >50% inhibition at 1 × 10^−5 M

## CSCC[C@H](NC(=O)c1ccc(C=Cc2cnccc2O)cc1-c1ccccc1C)C(=O)O [Example 1039, N-[4-(2-(4-Hydroxypyridin-3-yl)ethenyl)-2-(2-methylphenyl)benzoyl]methionine Lithium Salt]
[2]; [5]
  inhibition at 0.01 µM: 89%

## CSCC[C@H](NC(=O)c1ccc(/C=C/c2cnccc2Cl)cc1-c1ccccc1C)C(=O)O [Example 1040, N-[4-(2-(4-Chloropyridin-3-yl)ethenyl)-2-(2-methylphenyl)benzoyl]methionine Lithium Salt]
[2]; [5]
  inhibition at 0.01 µM: 90%

## CSCC[C@H](NC(=O)c1ccc(/C=C(\C#N)c2cccnc2)cc1-c1ccccc1C)C(=O)O [Example 1076, N-[4-(Z-2-Cyano-2-pyrid-3-ylethenyl)-2-(2-methylphenyl)benzoyl]methionine, Lithium Salt]
[2]; [5]
  inhibition at 0.01 µM: 69%

## CSCC[C@H](NC(=O)c1ccc(/C=C(/C(=O)OC(C)(C)C)c2cccnc2)cc1-c1ccccc1C)C(=O)O [Example 1077, N-[4-(E-2-t-Butoxycarbonyl-2-pyrid-3-ylethenyl)-2-(2-methylphenyl)benzoyl]methionine, Lithium Salt]
[2]; [5]
  inhibition at 0.01 µM: 93%

## CSCC[C@H](NC(=O)c1ccc(/C=C(\C(=O)OC(C)(C)C)c2cccnc2)cc1-c1ccccc1C)C(=O)O [Example 1078, N-[4-(Z-2-t-Butoxycarbonyl-2-pyrid-3-ylethenyl)-2-(2-methylphenyl)benzoyl]methionine, Lithium Salt]
[2]; read-out: % inhibition at 0.1 μM
  inhibition at 0.1 µM: 86%

## CSCC[C@H](NC(=O)c1ccc(CN(Cc2cccnc2)Cc2cc(F)cc(F)c2)cc1-c1ccccc1C)C(=O)O [Example 1286, N-[4-N-(N-(3-Pyridylmethyl)-N-(3,5-difluorobenzyl)aminomethyl)-2-(2-methylphenyl)benzoyl]methionine Lithium Salt]
[2]; [5]
  inhibition at 0.01 µM: 85%

## CSCC[C@H](NC(=O)c1ccc(CN(Cc2cccnc2)c2cc(F)cc(F)c2)cc1-c1ccccc1C)C(=O)O [Example 1287, N-[4-N-(N-3,5-Difluorophenyl-N-(3-pyridylmethyl)aminomethyl)-2-(2-methylphenyl)benzoyl]methionine Lithium Salt]
[2]; [5]
  inhibition at 0.01 µM: 95%

## CSCC[C@H](NC(=O)c1ccc(CN(CCCn2ccnc2)Cc2cc(F)cc(F)c2)cc1-c1ccccc1C)C(=O)O [Example 1298, N-[4-N-(N-(3-(1-Imidazole)-propyl)-N-(3,5-difluorobenzyl)aminomethyl)-2-(2-methylphenyl)benzoyl]methionine Lithium Salt]
[2]; [5]
  inhibition at 0.01 µM: 97%

## CSCC[C@H](NC(=O)c1ccc(CN(Cc2cc(F)cc(F)c2)c2cccnc2)cc1-c1ccccc1C)C(=O)O [Example 1360, N-[4-N-3,5-Difluorobenzyl-N-(3-pyridyl)aminomethyl-2-(2-methylphenyl)benzoyl]methionine Lithium Salt]
[2]; [5]
  inhibition at 0.01 µM: 98%

## COc1ccncc1C=Cc1ccc(C(=O)N[C@@H](CCSC)C(=O)O)c(-c2ccccc2C)c1 [Example 1361, N-[4-(2-(4-Methoxypyridin-3-yl)ethenyl)-2-(2-methylphenyl)benzoyl]methionine Sodium Salt]
[2]; Inhibition of farnesyltransferase, compound at 0.1 μM (Table 6, values marked *), read-out: % inhibition at 0.1 μM
  inhibition at 0.1 µM: 96%

## CCCOc1ccncc1C=Cc1ccc(C(=O)N[C@@H](CCSC)C(=O)O)c(-c2ccccc2C)c1 [Example 1362, N-[4-(2-(4-Propyloxypyridin-3-yl)ethenyl)-2-(2-methylphenyl)benzoyl]methionine Sodium Salt]
[2]; [6]
  inhibition at 0.01 µM: 83%

## CSCC[C@H](NC(=O)c1ccc(C=Cc2cnccc2OCc2cc(F)cc(F)c2)cc1-c1ccccc1C)C(=O)O [Example 1363, N-[4-(2-(4-(3,5-Difluorobenzyl)oxypyridin-3-yl)ethenyl)-2-(2-methylphenyl)benzoyl]methionine Sodium Salt]
[2]; [6]
  inhibition at 0.01 µM: 88%

## N-[4-(3-Imidazol-1-ylprolpylaminosulfonyl)-2-phenylbenzoyl]methionine Lithium Salt [Example 777]
[2]; [3]
  % inhibition at 1 × 10^−6 M: 83%

## [4-(3-Pyridyloxymethyl)-2-(2-chlorophenyl)benzoyl]methionine Methyl Ester [Example 305]
[2]; [3]
  % inhibition at 1 × 10^−6 M: 99%

## [4-(3-Pyridyloxymethyl)-2-(2-ethylphenyl)benzoyl]methionine Methyl Ester [Example 306]
[2]; [3]
  % inhibition at 1 × 10^−6 M: 99%

## [4-(3-Pyridyloxymethyl)-2-phenylbenzoyl]cysteine Disodium Salt [Example 188]
[2]; [3]
  % inhibition at 1 × 10^−6 M: 40%

## {4-[2-(3-Pyridy)-2-hydroxyethyl]-2-phenylbenzoyl]methionine Sodium Salt and {4-[2-(3-Pyridy)-1-hydroxyethyl]-2-phenylbenzoyl}methionine Sodium Salt [Example 284]
[2]; [3]
  % inhibition at 1 × 10^−6 M: 83%

## {4-[2-(Pyrid-3-yl)ethenyl]-2-(2-methylphenyl)benzyl}methionine Butyl Ester [Example 292]
[2]; [3]
  % inhibition at 1 × 10^−6 M: 36%
